Results on five compounds are retold here after ChEMBL document CHEMBL2429712, “Synthesis and cytotoxicity of (3)-3-acetyloxy-5(6)-androsten-7-one oxime and 3,5(6)-androstadien-7-one oxime” (Med Chem Res, 2013).

Format in all cases: functional, cell-based
In one experiment the test system is MCF7. The experiment can be described thus: Cytotoxicity against human MCF7 cells after 44 hrs by SRB assay. The note with it: MCF7, 44 h. A general note: The SRB assay estimates cell density from bound dye.
The next experiment concerns MKN-28. The experiment can be described thus: Cytotoxicity against human MKN28 cells after 44 hrs by SRB assay. The note with it: MKN-28, 44 h.
Another experiment concerns HeLa. Nature of the experiment: Cytotoxicity against human HeLa cells after 44 hrs by SRB assay.
The test system of another experiment is KB. The experiment can be described thus: Cytotoxicity against human KB cells after 44 hrs by SRB assay.

Each structure is given as a SMILES string. Bounds are passed on as bounds.

Broadly, the IC50 is the concentration needed to halve the response being measured. Read a high IC50 as lower potency. On to `CC(=O)O[C@H]1CC[C@@]2(C)C(=C/C(=N\O)[C@H]3[C@@H]4CCC[C@@]4(C)CC[C@@H]32)C1`, for which the IC50 came out at 10.2 µM in the experiment with MCF7, 18.1 µM in the experiment with MKN-28, 12.8 µM in the experiment on HeLa and 26 µM in the experiment with KB.
The matching figures for `C[C@@]12CCC[C@H]1[C@@H]1C(=O)C=C3C=CCC[C@]3(C)[C@H]1CC2`: 52.2 µM, 64.3 µM, 62.4 µM and over 80 µM.
As for `COc1cccc2c1C(=O)c1c(O)c3c(c(O)c1C2=O)C[C@@](O)(C(=O)CO)C[C@@H]3O[C@H]1C[C@H](N)[C@H](O)[C@H](C)O1` [DOXORUBICIN], the IC50 with MKN-28 was found to be 0.22 µM; in the experiment on KB, 0.028 µM.
As for `CC(=O)O[C@H]1CC[C@@]2(C)C(=CC(=O)[C@H]3[C@@H]4CCC[C@@]4(C)CC[C@@H]32)C1`, the IC50 in the experiment with MCF7 turned out to be 39.5 µM; in the experiment with MKN-28, 48.5 µM; in the experiment on HeLa it was 34 µM; in the experiment with KB, 62 µM.
Turning to `C[C@@]12CCC[C@H]1[C@@H]1/C(=N\O)C=C3C=CCC[C@]3(C)[C@H]1CC2`, the IC50 is 19.8 µM with MCF7, 36.1 µM in the experiment with MKN-28, 22.2 µM in the experiment on HeLa and 28.5 µM with KB.
